{
  "source": "paper PMC6089501",
  "about": "(Journal of Medicinal Chemistry, 2018)",
  "key": {"[1]": {"test_system": "M. tuberculosis QcrB T313I mutant strain", "type": "cell-based, Mycobacterium tuberculosis"}, "[2]": {"test_system": "M. tuberculosis QcrB M342T mutant strain", "type": "cell-based, Mycobacterium tuberculosis"}},
  "data": [
    {"smiles": "NC(=O)c1sc(N2CCOCC2)cc1OCCc1ccccc1", "note": "[Compound 1, 5-Morpholino-3-phenethoxythiophene-2-carboxamide]", "values": [
      {"measurement": "MIC T313I", "setting": "[1]", "value": 53, "unit": "µM"},
      {"measurement": "fold shift T313I", "setting": "[1]", "value": 41},
      {"measurement": "MIC M342T", "setting": "[2]", "value": 25, "unit": "µM"},
      {"measurement": "fold shift M342T", "setting": "[2]", "value": 19}
    ]},
    {"smiles": "CNC(=O)c1sc(N2CCOCC2)cc1OCCc1ccccc1", "note": "[Compound 21, N-Methyl-5-morpholino-3-(2-phenylethoxy)thiophene-2-carboxamide]", "values": [
      {"measurement": "MIC T313I", "setting": "[1]", "value": ">20", "unit": "µM"},
      {"measurement": "fold shift T313I", "setting": "[1]", "value": ">250"},
      {"measurement": "MIC M342T", "setting": "[2]", "value": 4.8, "unit": "µM"},
      {"measurement": "fold shift M342T", "setting": "[2]", "value": 60}
    ]},
    {"smiles": "NC(=O)c1sc(-c2ccncc2)cc1OCCc1ccccc1", "note": "[Compound 35, 3-(2-Phenylethoxy)-5-(4-pyridyl)thiophene-2-carboxamide]", "values": [
      {"measurement": "MIC T313I", "setting": "[1]", "value": ">50", "unit": "µM"},
      {"measurement": "fold shift T313I", "setting": "[1]", "value": ">8.6"},
      {"measurement": "MIC M342T", "setting": "[2]", "value": ">20", "unit": "µM"},
      {"measurement": "fold shift M342T", "setting": "[2]", "value": ">3"}
    ]},
    {"smiles": "NC(=O)c1sc(N2CCOCC2)cc1OCCc1ccc(OC(F)(F)F)cc1", "note": "[Compound 37, 5-Morpholino-3-[2-[4-(trifluoromethoxy)phenyl]ethoxy]thiophene-2-carboxamide]", "values": [
      {"measurement": "MIC T313I", "setting": "[1]", "value": 11, "unit": "µM"},
      {"measurement": "fold shift T313I", "setting": "[1]", "value": 46}
    ]},
    {"smiles": "NC(=O)c1sc(N2CCOCC2)cc1OCCc1cccc(F)c1", "note": "[Compound 39, 3-[2-(3-Fluorophenyl)ethoxy]-5-morpholinothiophene-2-carboxamide]", "values": [
      {"measurement": "MIC T313I", "setting": "[1]", "value": 59, "unit": "µM"},
      {"measurement": "fold shift T313I", "setting": "[1]", "value": 110},
      {"measurement": "MIC M342T", "setting": "[2]", "value": 7, "unit": "µM"},
      {"measurement": "fold shift M342T", "setting": "[2]", "value": 14}
    ]}
  ]
}
